In US8618178B2, “Method and substances for treating T-cell mediated autoimmune diseases” (Eberhard-Karls-Universitaet Tuebingen Universitaetsklinikum, priority 2006, dated 2013):
Entries after “also recorded” stand apart in the source; their conditions may differ. Structures can show the parent of a compound that is named as a salt.

Assays:
IL-12 = IL-12 production by DC, ELISA of culture supernatants; assay type: cell-based, mouse; conditions: after stimulation with LPS
Protocol: IL-4, IL-10, IL-12 and interferon-γ were determined using the ELISA (enzyme linked immunosorbent assay) set or with the use of individual components from BD BioSciences. IL-23 in the supernatant was determined using the ELISA set (eBioscience). For intracytoplasmic cytokine analyses, the T cells were restimulated with PMA/ionomycin or with APC and peptide in the presence of brefeldin A, then fixed and permeabilized and stained. For the surface staining, anti-CD4 or KJ1-26 antibodies were used; the cytokine antibodies (PE labeled) were all obtained from BD Pharmingen.
As antigen presenting cells (APC), T cell depleted spleen cells from syngenic mice were used. Dendritic cells (DC) which were obtained from bone marrow (BMDC) and cultured with GM-CSF were used for the relevant experiments on day 7 of culturing. For the experiment, in each case an equal number of APC were cultured either with the medium alone, with L-BSO (C8H18N2O3S, 0.5 mM), dimethyl sulfoxide DMSO(C2H6OS), dimethyl fumarate DMF (C6H8O4, dissolved in DMSO, 70 μM), or calcium monomethyl fumarate (MMF; CaC10H10O8, 200 μM). All substances except for MMF (Fumapharm) were purchased from Sigma-Aldrich. At the respective stated times (see below) the cells were either analyzed directly for their GSH content, […] 055.B5 (Sigma-Aldrich) or CpG-DNA 1668 (MWG Biotech) and IL-4 (Stratmann). In order to raise the GSH level again, 1 mM GSH-OEt (C12H21N3O6S; Sigma-Aldrich) or 1 mM NAC (Sigma-Aldrich) was added.

[1] = system: experimental autoimmune encephalomyelitis (EAE); test: EAE after transfer of in vitro generated PLP-specific T cells into naive SJL mice; assay type: in vivo; conditions: 10^7 lymphocytes injected into naive SJL mice
Protocol: (§1) Spleen and lymph node CD4^+ T cells were stimulated with PLP (proteolipid protein) peptide 139-151 (10 μg/ml) and stimulated for four days with irradiated SJL-APC in the presence or absence of L-BSO (0.5 mM, Sigma), expanded for three to four days and then restimulated for cytokine production (proteolipid protein is the commonest myelin protein in the central nervous system and plays an important part as an autoantigen in the onset of multiple sclerosis). Next, 10^7 sham (control) or L-BSO treated T cells were injected intraperitoneally into naive SJL mice and the EAE developing as a result was observed. […] Half of the group was fed daily for 14 days with DMF 0.3 mg/ml (Fluka) or L-BSO 0.15 mg/ml in the drinking water. For the cytokine analysis of PLP-specific T cells, the draining lymph nodes of the SJL mice were removed 6 days after the immunization and CD4^+ T cells antigen-specifically analyzed (ELISPOT). For this, ELISPOT plates (Millipore Corporation) were coated with anti-IFN-γ or anti-IL-4 antibodies overnight at 4° C., blocked after 12 hrs with PBS/10% FCS and, after the solution had been poured off, the isolated T lymphocytes were incubated with APC and medium alone or in the presence of PLP peptide. After the incubation time, the cells were poured off, and the plates washed with PBS/Tween and incubated with biotin-conjugated secondary antibodies. After further washing procedures and incubation with streptavidin-alkaline phosphatase (Boehringer), the plates were incubated with developer solution. After washing with H2O, the number of spots was determined in the ELISPOT reader (Biosys).
Since the induction of the TH2 phenotype could adversely affect the ability of the CD4^+ T cells to induce autoimmune diseases in immunocompetent mice, it was concluded that GSH^lowIL12^−DC2 could weaken the ability of autoreactive CD4^+ T cells to induce the disease. For the next experiments, lymphocytes from SJL mice were stimulated twice with PLP peptide, either in the presence or absence of L-BSO, DMF or MMF. […]

[2] = system: experimental autoimmune encephalomyelitis (EAE); test: Actively induced EAE in SJL mice, substance in the drinking water; assay type: in vivo; conditions: for course/severity of actively induced EAE: DMF 0.3 mg/ml or L-BSO 0.15 mg/ml in the drinking water; for survival of mice with actively induced EAE: substance in the drinking water
Protocol: as §1
(§2) In order further to study whether GSH deprivation can also influence the differentiation and pathogenicity of autoreactive T cells in vivo, mice were fed with DMF or L-BSO in the drinking water, and the control group only with drinking water. Active EAE induction was effected on day 10 with PLP peptide in complete Freund's adjuvant (CFA) and pertussis toxin. The mice were examined daily regarding the course of the artificially triggered disease. Through the administration of L-BSO or DMF, the GSH levels in lymphoid organs and in the brain of immunized mice could be lowered (not shown). […] 6 days after immunization, the draining lymph nodes of the mice were analyzed. For this, the CD4^+ T cells were isolated and the cytokine production of PLP-specific T cells measured using ELISPOT after in vitro stimulation.

[3] = GSH levels in organs of immunized mice after feeding; assay type: in vivo; conditions: fed in the drinking water; data not shown
Source text: as §2, with “stimulation. […] The pharmaceutical substances to be tested can also be analyzed ex vivo for their potential to deplete GSH. For this, after treatment of experimental mice, small tissue pieces are removed from the respective organs and placed in about 1 ml of 1% SSA. The tissue piece in SSA is homogenized using an ultrasonic probe. The further GSH and protein determination is effected according to the procedure described for APC and DC. Comparison with the GSH content of control cells or control tissue indicates the GSH-lowering action of the pharmaceutical substance to be tested.” for “stimulation.”

[4] = system: PLP-specific CD4+ T cells; test: ELISPOT cytokine analysis of PLP-specific CD4+ T cells from draining lymph nodes of fed mice; assay type: in vivo, SJL mice; conditions: 6 days after immunization, ELISPOT IL-4 / IFN-γ
Protocol: Spleen and lymph node CD4^+ T cells were stimulated with PLP (proteolipid protein) peptide 139-151 (10 μg/ml) and stimulated for four days with irradiated SJL-APC in the presence or absence of L-BSO (0.5 mM, Sigma), expanded for three to four days and then restimulated for cytokine production (proteolipid protein is the commonest myelin protein in the central nervous system and plays an important part as an autoantigen in the onset of multiple sclerosis). Next, 10^7 sham (control) or L-BSO treated T cells were injected intraperitoneally into naive SJL mice and the EAE developing as a result was observed. […] For the cytokine analysis of PLP-specific T cells, the draining lymph nodes of the SJL mice were removed 6 days after the immunization and CD4^+ T cells antigen-specifically analyzed (ELISPOT). […] After washing with H2O, the number of spots was determined in the ELISPOT reader (Biosys).
In order further to study whether GSH deprivation can also influence the differentiation and pathogenicity of autoreactive T cells in vivo, mice were fed with DMF or L-BSO in the drinking water, and the control group only with drinking water. […] 6 days after immunization, the draining lymph nodes of the mice were analyzed. For this, the CD4^+ T cells were isolated and the cytokine production of PLP-specific T cells measured using ELISPOT after in vitro stimulation.

COC(=O)/C=C/C(=O)OC [DMF, dimethyl fumarate]
IL-12 production by DC (IL-12): strong suppression of IL-12 production; also recorded: markedly less; also recorded: markedly decreased capacity to produce IL-12 | ability of T cells generated in the presence of the substance to induce EAE [1]: not able to trigger severe encephalomyelitis | course/severity of actively induced EAE [2]: markedly milder EAE; also recorded: protects actively immunized mice against the onset of severe encephalomyelitis | survival of mice with actively induced EAE [2]: all mice survived | GSH levels in lymphoid organs and in the brain of immunized mice [3]: lowered | cytokine pattern of PLP-specific CD4+ T cells [4]: TH2-like pattern

CCCCS(=N)(=O)CCC(N)C(=O)O [L-BSO, L-buthionine sulfoximine]
IL-12 production by DC (IL-12): strong suppression of IL-12 production; also recorded: markedly decreased capacity to produce IL-12 | ability of T cells generated in the presence of the substance to induce EAE [1]: scarcely still capable of inducing EAE in vivo | course/severity of actively induced EAE [2]: markedly milder EAE; also recorded: markedly improved; also recorded: protects actively immunized mice against the onset of severe encephalomyelitis | survival of mice with actively induced EAE [2]: all mice survived | GSH levels in lymphoid organs and in the brain of immunized mice [3]: lowered | cytokine pattern of PLP-specific CD4+ T cells [4]: TH2-like pattern

COC(=O)/C=C/C(=O)[O-].[Ca+] [MMF, calcium monomethyl fumarate]
IL-12 production by DC (IL-12): strong suppression of IL-12 production; also recorded: markedly decreased capacity to produce IL-12 | ability of T cells generated in the presence of the substance to induce EAE [1]: not able to trigger severe encephalomyelitis
